Source: patent publication US9925263B2, “Liquid pharmaceutical formulations for injection comprising procaine and uses thereof” (EAGLE BIOLOGICS, INC., priority 2013, dated 2018)
Structures can show the parent of a compound that is named as a salt. Blank lines part the entries; values can stand above or below the compound they belong to.

Key:
biosimilar AVASTIN® = test: Viscosity of aqueous solutions of biosimilar AVASTIN® with viscosity-lowering agents; type: physicochemical
Method: (unless otherwise indicated).
The protein was formulated to contain either 0.25 M phosphate buffer or 0.25 M CSAL.
Subsequently, the appropriate amount of viscosity-lowering agent was added to result in a final viscosity-lowering agent concentration of 0.15-0.35 M upon reconstitution.
The viscosity-lowering agent(s) were added in an amount sufficient to give concentration upon reconstitution as specified below. In cases of combinations of agents, the concentration of each component is 0.15 M. The protein solutions were then freeze-dried.

biosimilar ERBITUX® = test: Viscosity of aqueous solutions of biosimilar ERBITUX® with viscosity-lowering agents; settings: for Fold Reduction: vs phosphate buffer
biosimilar RITUXAN® = test: Viscosity of aqueous solutions of biosimilar RITUXAN® with viscosity-lowering agents; settings: 25° C.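 Note: absolute viscosity of aqueous antibody solutions determined by microfluidic viscometry (mVROC chip, 50 micron channel) at several flow rates after 5 min equilibration, mean of at least three readings.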
Method: All viscosities of well-mixed aqueous mAb solutions were measured using either a mVROC microfluidic viscometer (RheoSense) or a DV2T cone and plate viscometer (Brookfield; “C & P”) after a 5 minute equilibration at 25° C. […] The mVROC viscometer was equipped with an “A” or “B” chip, each manufactured with a 50 micron channel. Typically, 0.10 mL of protein solution was back-loaded into a gastight microlab instrument syringe (Hamilton; 100 μL), affixed to the chip, and measured at multiple flow rates, approximately 20%, 40%, and 60% of the maximum pressure for each chip. […] An average absolute viscosity and standard deviation was then calculated from at least these three measurements. The C & P viscometer was equipped with a CPE40 or CPE52 spindle (cone angle of 0.8° and 3.0°, respectively) and 0.50 mL samples were measured at multiple shear rates between 2 and 400 s^−1. […] An extrapolated zero-shear viscosity was then determined from a plot of dynamic viscosity versus shear rate for the samples measured on a DV2T cone and plate viscometer. The extrapolated zero-shear viscosities reported are the average and standard deviation of at least three measurements.
Viscosities were measured using a RheoSense mVROC microfluidic viscometer equipped with an “A” or “B” chip.

[1] = 222 ± 5 mg/mL mAb, pH 7.0, 0.25M agent, 25° C.
[2] = 225 ± 5 mg/mL mAb, pH 7.0, 0.25M agent, 20° C.
[3] = 225 ± 5 mg/mL mAb, pH 7.0, 0.25M agent, 25° C.
[4] = 225 ± 5 mg/mL mAb, pH 7.0, 0.25M agent, 30° C.
[5] = 200 ± 5 mg/mL mAb, pH 7.0, 25° C., [Salt] 0.25 M of anion, C & P viscometer
[6] = 200 ± 5 mg/mL mAb, pH 7.0, 25° C., [Salt] […] of anion, C & P viscometer
[7] = 229 mg/mL mAb, […] agent, pH 7.0, 25° C., microfluidic
[8] = 221 mg/mL mAb, […] agent, pH 7.0, 25° C., microfluidic
[9] = 230 mg/mL mAb, agent […], 25° C.
[10] = 206 mg/mL mAb, agent […], 25° C.
[11] = 225 mg/mL mAb, agent […], 25° C.
[12] = 228 ± 5 mg/mL mAb, agent 0.25 M, 25° C., pH 7.0
[13] = 200 ± 5 mg/mL mAb, pH 7.0, 25° C., [Salt] 0.35 M of anion, C & P viscometer

Compound: Cc1nccn1CCCN.Cl.Cl [APMI*2HCl, 1-(3-aminopropyl)-2-methyl-1H-imidazole dihydrochloride]
Viscosity-lowering effect as a function of agent concentration (biosimilar AVASTIN®; 0.10 vs 0.25 M APMI*2HCl, FIG. 7): viscosity-lowering effect was increased

Compound: C[C@H]1[C@H](NC(=O)/C(=N\OC(C)(C)C(=O)O)c2csc(N)n2)C(=O)N1S(=O)(=O)O [Aztreonam, reference compound]
Viscosity (biosimilar ERBITUX®; 179 mg/mL mAb, 0.02M agent, 25° C.): 256 ± 4 cP

Compound: NCCCC[C@H](N)C(=O)O.O=S(=O)(O)c1ccccc1 [BSAL, benzenesulfonic acid lysine]
Viscosity (biosimilar AVASTIN®; 230 ± 5 mg/mL mAb, pH 7.0, […], 20° C.): 395 ± 3 cP | Viscosity (biosimilar AVASTIN®; 230 ± 5 mg/mL mAb, pH 7.0, […], 25° C.): 227 ± 5 cP | Viscosity (biosimilar ERBITUX®; [1]): 126 ± 1 cP | Viscosity (biosimilar ERBITUX®; [2]): 193 ± 0 cP | Viscosity (biosimilar ERBITUX®; [3]): 126 ± 1 cP | Viscosity (biosimilar ERBITUX®; [4]): 89.8 ± 0.8 cP

Compound: N=C(N)NCCC[C@H](N)C(=O)O.O=C(O)c1ccccc1 [Benzoic acid arginine]
Viscosity (biosimilar AVASTIN®; [5]): 51.4 ± 0.5 cP | Viscosity (biosimilar AVASTIN®; [6]): 52.2 ± 0.5 cP

Compound: CC1(C)C2CCC1(CS(=O)(=O)O)C(=O)C2.OCCN(CCO)CCO (stereo not drawn) [CSA Triethanolamine]
Viscosity (biosimilar AVASTIN®; 238 mg/mL mAb, agent […], 25° C.): 144 ± 1 cP

Compound: CC1(C)C2CCC1(CS(=O)(=O)O)C(=O)C2.N=C(N)NOCC[C@H](N)C(=O)O (stereo not drawn) [CSA canavanine]
Viscosity (biosimilar AVASTIN®; [5]): 75.6 ± 3.0 cP | Viscosity (biosimilar AVASTIN®; [6]): 60.5 ± 0.6 cP

Compound: CC1(C)C2CCC1(CS(=O)(=O)O)C(=O)C2.Nc1ccncc1 (stereo not drawn) [CSA-4-aminopyridine]
Viscosity (biosimilar RITUXAN®; 195 mg/mL mAb, […] agent): 47.0 ± 1.4 cP | Viscosity (biosimilar RITUXAN®; 233 mg/mL mAb, […] agent): 66.5 ± 0.8 cP | Viscosity (biosimilar AVASTIN®; [7]): 86.4 ± 1.1 cP

Compound: CCN(CC)CC(=O)Nc1c(C)cccc1C [Lidocaine HCl, reference compound]
Viscosity (biosimilar AVASTIN®; 218 mg/mL mAb, agent […], 25° C.): 147 ± 15 cP | Viscosity (biosimilar AVASTIN®; 237 mg/mL mAb, agent […], 25° C.): 97.3 ± 1.8 cP | Viscosity (biosimilar ERBITUX®; 223 mg/mL mAb, […] agent, 25° C.): 33.8 ± 0.4 cP

Compound: NCCCC[C@H](N)C(=O)O [Lysine•HCl, reference compound]
Viscosity (biosimilar AVASTIN®; [5]): 137 ± 2 cP | Viscosity (biosimilar ERBITUX®; [1]): 128 ± 2 cP | Fold Reduction (biosimilar ERBITUX®; [1]): 8.8 fold

Compound: CS(=O)(=O)O.N=C(N)NCCC[C@H](N)C(=O)O [MSA arginine]
Viscosity (biosimilar AVASTIN®; [5]): 93.1 ± 0.9 cP

Compound: [Cl-].[Na+] [NaCl, reference compound]
Viscosity (biosimilar AVASTIN®; [5]): 121 ± 8 cP

Compound: ClC=CC[N+]12CN3CN(CN(C3)C1)C2.[Cl-] [Quaternium 15]
Viscosity (biosimilar RITUXAN®; 221 mg/mL mAb, […] agent): 135 ± 5 cP

Compound: CSA betaine
Viscosity (biosimilar AVASTIN®; [5]): 66.0 ± 0.7 cP

Compound: Chlorotheophylline arginine
Viscosity (biosimilar AVASTIN®; [5]): 104.5 ± 6.5 cP

Compound: Ethandisulfonate diarginine
Viscosity (biosimilar AVASTIN®; [5]): 105 ± 4 cP | Viscosity (biosimilar AVASTIN®; [6]): 77.1 ± 0.3 cP

Compound: Sulfosalicylic acid dilysine
Viscosity (biosimilar AVASTIN®; [12]): 73.4 ± 0.4 cP

Compound: Toluenesulfonic acid arginine
Viscosity (biosimilar AVASTIN®; [5]): 159 ± 5 cP

Compound: Toluenesulfonic acid lysine
Viscosity (biosimilar AVASTIN®; [5]): 118 ± 1 cP

Compound: naphthalenesulfonic acid arginine [NSAA]
Viscosity (biosimilar ERBITUX®; [1]): 69.4 ± 0.6 cP | Viscosity (biosimilar ERBITUX®; [2]): 103 ± 0 cP | Viscosity (biosimilar ERBITUX®; [3]): 69.4 ± 0.6 cP | Viscosity (biosimilar ERBITUX®; [4]): 60.9 ± 4.3 cP | Fold Reduction (biosimilar ERBITUX®; [1]): 16.3 fold

Next, values leading:

Viscosity (biosimilar RITUXAN®; 206 mg/mL mAb, […] agent): 65.1 ± 1.8 cP | Viscosity (biosimilar AVASTIN®; [7]): 60.6 ± 1 cP
Compound: Cc1nnc(SCC2=C(C(=O)O)N3C(=O)[C@@H](NC(=O)Cn4cnnn4)[C@H]3SC2)s1 [Cefazolin, reference compound]

Viscosity (biosimilar ERBITUX®; 194 mg/mL mAb, […] agent, 25° C.): 166 ± 8 cP
Compound: CO[C@@]1(NC(=O)Cc2cccs2)C(=O)N2C(C(=O)O)=C(COC(N)=O)CS[C@@H]21 [Cefoxitin sodium salt, reference compound]

Viscosity (biosimilar AVASTIN®; 210 mg/mL mAb, agent 0.02M, 25° C.): 121 ± 2 cP | Viscosity (biosimilar ERBITUX®; 189 mg/mL mAb, 0.02M agent, 25° C.): 284 ± 5 cP
Compound: Nc1ccn(C[C@@H](CO)OCP(=O)(O)O)c(=O)n1 [Cidofovir hydrate, reference compound]

Viscosity (biosimilar ERBITUX®; 188 mg/mL mAb, […] agent, 25° C.): 119 ± 2 cP
Compound: O=C1NC(c2ccccc2)(c2ccccc2)C(=O)N1COP(=O)(O)O [Fosphenytoin disodium salt, reference compound]

Viscosity (biosimilar RITUXAN®; 207 mg/mL mAb, […] agent): 149 ± 13 cP | Viscosity (biosimilar AVASTIN®; [8]): 151 ± 5 cP | Viscosity (biosimilar AVASTIN®; 221 mg/mL mAb, […] agent, pH 7.0, 25° C., microfluidic, listed as Glucuronic acid-Tris): 151 ± 5.0 cP
Compound: NC(CO)(CO)CO.O=C[C@H](O)[C@@H](O)[C@H](O)[C@H](O)C(=O)O [Glucuronic acid-tris]

Viscosity (biosimilar RITUXAN®; 185 mg/mL mAb, […] agent): 46.8 ± 0.6 cP | Viscosity (biosimilar AVASTIN®; 223 mg/mL mAb, agent […], 25° C.): 129 ± 3 cP
Compound: Cc1cccc(C)c1NC(=O)C1CCCCN1C (stereo not drawn) [Mepivacaine HCl, reference compound]

Viscosity (biosimilar RITUXAN®; 194 mg/mL mAb, […] agent): 39.3 ± 0.4 cP | Viscosity (biosimilar AVASTIN®; [9]): 64.4 ± 1.6 cP
Compound: CCN(CC)CCNC(=O)c1cc(Cl)c(N)cc1OC [Metoclopramide HCl, reference compound]

Viscosity (biosimilar ERBITUX®; 186 mg/mL mAb, […] agent, 25° C.): 66.7 ± 1.0 cP
Compound: COc1c(N2C[C@@H]3CCCN[C@@H]3C2)c(F)cc2c(=O)c(C(=O)O)cn(C3CC3)c12 [Moxifloxacin HCl, reference compound]

Viscosity (biosimilar AVASTIN®; [8]): 68.5 ± 1.1 cP
Compound: Cl.[Cl-].c1cc[n+](-c2ccncc2)cc1 [N-(4-Pyridiyl)pyridinium Cl HCl]

Viscosity (biosimilar ERBITUX®; 232 mg/mL mAb, […] agent, 25° C.): 292 ± 10 cP
Compound: NC(=O)c1cccnc1 [Nicotinamide]

Viscosity (biosimilar AVASTIN®; 201 mg/mL mAb, agent […], 25° C.): 108 ± 1 cP | Viscosity (biosimilar ERBITUX®; 183 mg/mL mAb, […] agent, 25° C.): 54.1 ± 2.9 cP
Compound: CNC[C@H](O)c1cccc(O)c1 [Phenylephrine HCl, reference compound]

Viscosity (biosimilar RITUXAN®; 194 mg/mL mAb, […] agent): 127 ± 2 cP | Viscosity (biosimilar AVASTIN®; [10]): 197 ± 5 cP
Compound: CCN1CCN(C(=O)N[C@@H](C(=O)N[C@@H]2C(=O)N3[C@@H]2SC(C)(C)[C@@H]3C(=O)O)c2ccccc2)C(=O)C1=O [Piperacillin sodium salt, reference compound]

Viscosity (biosimilar AVASTIN®; 227 mg/mL mAb, agent […], 25° C.): 107 ± 0 cP
Compound: Cc1ncc(CO)c(CO)c1O [Pyridoxine]

Viscosity (biosimilar AVASTIN®; [11]): 131 ± 4 cP | Viscosity (biosimilar ERBITUX®; 237 mg/mL mAb, 0.10M agent, 25° C.): 492 ± 9 cP
Compound: Cc1cc2nc3c(=O)[nH]c(=O)nc-3n(C[C@H](O)[C@H](O)[C@H](O)COP(=O)([O-])O)c2cc1C.[Na+] [Riboflavin-5-phosphate]

Viscosity (biosimilar RITUXAN®; 234 mg/mL mAb, […] agent): 111 ± 8 cP | Viscosity (biosimilar AVASTIN®; [9]): 147 ± 4 cP
Compound: OC[C@H]1O[C@H](O[C@]2(CCl)O[C@H](CCl)[C@@H](O)[C@@H]2O)[C@H](O)[C@@H](O)[C@H]1Cl [Sucralose]

Viscosity (biosimilar AVASTIN®; 214 mg/mL mAb, agent […], 25° C.): 113 ± 1 cP
Compound: CC(=O)[N-]S(=O)(=O)c1ccc(N)cc1.[Na+] [Sulfacetamide-Na, reference compound]

Viscosity (biosimilar AVASTIN®; 212 mg/mL mAb, agent 0.25M, 25° C.): 93.2 ± 2.7 cP
Compound: CNS(=O)(=O)Cc1ccc2[nH]cc(CCN(C)C)c2c1 [Sumatriptan Succinate, reference compound]

Viscosity (biosimilar RITUXAN®; 199 mg/mL mAb, […] agent): 126 ± 3.3 cP | Viscosity (biosimilar AVASTIN®; 211 mg/mL mAb, agent […], 25° C.): 121 ± 6 cP
Compound: O=P1([O-])OP(=O)([O-])OP(=O)([O-])O1.[Na+].[Na+].[Na+] [Trimetaphosphate-3Na]

Viscosity (biosimilar AVASTIN®; 210 mg/mL mAb, 0.25 M agent, 25° C., pH 7.0): 40.9 ± 0.5 cP | Viscosity (biosimilar AVASTIN®; [12]): 71.8 ± 3.2 cP
Compound: CSA 1-(3-aminopropyl)-2-methyl-1H-imidazole [CSAAPMI-2HCl]

Viscosity (biosimilar AVASTIN®; [5]): 72.4 ± 1.7 cP
Compound: CSA carnitine

Viscosity (biosimilar AVASTIN®; [5]): 47.4 ± 1.3 cP | Viscosity (biosimilar AVASTIN®; [13]): 51.7 ± 0.9 cP
Compound: CSA dimethylpiperazine

Viscosity (biosimilar RITUXAN®; 190 mg/mL mAb, […] agent): 40.4 ± 1.9 cP | Viscosity (biosimilar AVASTIN®; 228 mg/mL mAb, agent […], 25° C.): 121 ± 1 cP
Compound: CSA-1-o-tolybiguanide

Viscosity (biosimilar RITUXAN®; 190 mg/mL mAb, 0.3M agent): 33.3 ± 1.1 cP | Viscosity (biosimilar AVASTIN®; 202 mg/mL mAb, agent […], 25° C.): 38.4 ± 0.9 cP
Compound: CSA-Na-Creatinine

Viscosity (biosimilar RITUXAN®; 191 mg/mL mAb, […] agent): 61.3 ± 2.5 cP | Viscosity (biosimilar AVASTIN®; [11]): 69.2 ± 3.7 cP
Compound: CSA-Na-aminocyclohexane carboxylic acid

Viscosity (biosimilar RITUXAN®; 191 mg/mL mAb, […] agent): 59.1 ± 0.7 cP | Viscosity (biosimilar AVASTIN®; 197 mg/mL mAb, agent […], 25° C.): 50 ± 1 cP | Viscosity (biosimilar AVASTIN®; [10]): 64.4 ± 1.4 cP
Compound: CSA-Tris

Viscosity (biosimilar AVASTIN®; 228 ± 5 mg/mL mAb, agent […], 25° C., pH 7.0): 83.7 ± 2.2 cP | Viscosity reduction (biosimilar AVASTIN®; ~230 mg/mL mAb, vs PB, Table 12): approximately 5 fold
Compound: CSAthiamine-2NaCl

Viscosity (biosimilar AVASTIN®; [5]): 85.5 ± 5.2 cP | Viscosity (biosimilar AVASTIN®; [13]): 65.6 ± 1.6 cP
Compound: diCSA cadaverine
